“And” between values parts separate entries of the source, which are not always exact repeats. Equal values may be shown once. Read-outs that look alike come from different tables or passages of the source.
Columns and labels:
[1] = Serum calcification propensity assay after 4.5 h incubation in enzymatically active human serum; conditions: compound at c350 concentration, 37 °C; individual donors, Fig. 2e
[2] = system: transformation of CPP1 to CPP2 in pooled human serum; experiment: In vitro serum calcification propensity (T50) screening assay; type: biochemical; design: key to T50: T50 in minutes (time to 50% CPP phase transition)
[3] = system: primary human VSMCs; experiment: CPP1-induced VSMC calcium deposition; type: cell-based; conditions: for VSMC calcium deposition (CPP2 = 100): CPP1 50 µg Ca/mL
Protocol: Calcium deposition on cell monolayers was assessed qualitatively by staining for calcium with 2% w/v Alizarin Red S aqueous solution (pH 4.2) (05600, Fluka Analytical). Cell monolayers in 24-well plates were washed with PBS (10010015, Thermo Fischer), fixed in 10% v/v NBF in PBS (F8775, Sigma-Aldrich) for 45 min at RT, washed with milli-Q water, incubated for 3 min with 300 µL Alizarin Red S solution, washed with milli-Q, and images were acquired using a Axiovert 35 microscope (Zeiss, Carl Zeiss Microscopy GmbH, Jena, Germany) at ×100 magnification. Calcium quantitation was performed after washing cells with PBS and then decalcifying cell monolayers with 0.1 M HCl overnight at 4 °C. Acidic supernatants were centrifuged (10,000 × g, 4 °C, 10 min) and calcium content was assessed using the calcium colorimetric assay.

[4] = system: primary human VSMCs; experiment: VSMC viability (MTS) in CPP2-supplemented medium; type: cell-based
Protocol: (§1) Macrophage accumulation and inflammation coincide with the initial phase of calcification. To this end, VSMCs and THP-1-derived macrophages were exposed to CPP2-supplemented medium. CPP2 prepared from human serum as described previously[61] (Supplementary Figs. 6 and 7), induced a pronounced VSMC monolayer calcification after 48 h, which was decreased by (OEG2)2-IP4 in a dose-dependent fashion, and the effect became significant at 10 µM (Fig. 3e). […] Both H2O2 (proxy for oxidative stress) and tumor necrosis factor-alpha (TNF-α) (proxy for inflammatory response) levels were assayed in the VSMC culture supernatants subsequent to CPP2 treatment with and without compounds[30]. However, no increase in H2O2 nor TNF-α compared to control could be detected in either assay. For the CPP-induced VSMC calcification assay (Fig. 3e) a roughly 10-fold higher concentration of (OEG2)2-IP4 was necessary to achieve similar activity as in the CaP-induced VSMC calcification assay (Fig. 3b). […] In the CaP assay, low inhibitor concentration may be sufficient to inhibit crystal nucleation, whereas for the CPP assay higher inhibitor concentrations may be needed to achieve sufficient particle stabilization by chemisorption of inhibitor onto CPPs. Similar results have been reported for hydrogen sulfide in the context of VC[62],[64]. […] An increase in the TNFα levels in the cell culture supernatants was not observed for (OEG2)2-IP4 with (Fig. 3h) and without (Supplementary Fig. 10) combined CPP2 treatment.
(§2) Cell viability was assessed using the MTS assay (CellTiter 96® Aqueous One Solution Cell Proliferation Assay, G3580; Promega, Madison, WI, USA) according to the manufacturer’s instructions. Assays using combined treatment of CPPs or CaP and test compounds were performed in 24-well plates using 20,000 cells per well and assays using test compounds only were performed in a 96-well plate format with a seeding density of 10,000 (VSMC) or 50,000 (THP-1) cells per well, respectively. For controls, cells were treated with respective complete medium only and results were calculated as % of control.

[5] = VSMC viability (MTS) in CPP2-supplemented medium; type: cell-based, human; conditions: human, read-out: VSMC viability (MTS), % of medium control
Protocol: as §1, §2

[6] = PK in healthy rats, s.c.; type: in vivo, male Sprague-Dawley rats; conditions: male, Sprague-Dawley, rat, in vivo, sc; for Cmax: read-out: Cmax

## COCCOCCO[C@@H]1[C@@H](OP(=O)(O)O)[C@H](OCCOCCOC)[C@@H](OP(=O)(O)O)[C@@H](OP(=O)(O)O)[C@H]1OP(=O)(O)O [(OEG2)2-IP4, 4,6-Di-O-(methoxy-diethyleneglycol)-myo-inositol-1,2,3,5-tetrakis(phosphate)]
[1]
  ΔT50 after 4.5 h vs 0 h incubation in enzymatically active human serum: -10 min and 0 min and 51 min and 10 min
[2]; 0.3 µM, individual experiments, Fig. 2a
  T50: 225.667 min and 200.6 min and 198.8 min
[2]; 1 µM, individual experiments, Fig. 2a
  T50: 245.5 min and 222.6 min and 227.433 min
[2]; 3 µM, individual experiments, Fig. 2a
  T50: 295.5 min and 257.733 min and 269.633 min
[2]; 10 µM, individual experiments, Fig. 2a
  T50: 669.833 min and 505.133 min and 608.55 min
[2]; concentration 0.3 μM, one value per experiment
  T50: 225.667 and 200.6 and 198.8
[2]; concentration 1 μM, one value per experiment
  T50: 245.5 and 222.6 and 227.433
[2]; concentration 3 μM, one value per experiment
  T50: 295.5 and 257.733 and 269.633
[2]; concentration 10 μM, one value per experiment
  T50: 669.833 and 505.133 and 608.55
[2]; from c350 in mg/L
  stronger inhibition than (OEG11)2-IP4, activity by unit mass: 32%
[2]; mean c350 x mw (Na salt)
  activity/unit mass: 4.30 mg/L
[2]; mean of n experiments
  concentration upon which a T50 of 350 min is reached (c350), mean: 4.9 µM
[2]; one value per experiment (lab journal reference E05-E40)
  concentration upon which a T50 of 350 min is reached (c350), single experiment: 4.3 µM and 5.9 µM and 5.0 µM and 3.6 µM and 5.4 µM
[2]; pooled human serum, 10 mM calcium, 6 mM phosphate, 37 °C
  Concentration at T50 = 350 min mean ± s.d. (n) (c350): 4.9 ± 0.8 µM and 4.3 ± 0.7 mg/L
[3]; 1 µM, replicates Fig. 3g
  VSMC calcium deposition (CPP2 = 100): 54.74% and 45.04% and 38.43%
[3]; 10 µM
  VSMC calcium deposition (CPP2 = 100): 14.07% and 5.29% and 7.26%
[3]; 30 µM
  VSMC calcium deposition (CPP2 = 100): 8.51% and 7.29% and 1.56%
[3]; 100 µM
  VSMC calcium deposition (CPP2 = 100): 1.78% and 6.75% and 5.25%
[3]; CPP1
  concentration from which calcium deposition was reduced to the level of control: ≥ 10 µM
[4]
  VSMC viability in CPP2 setup: did not reduce VSMC viability
[4]; 1 µM with CPP2, replicates Fig. 3f
  VSMC viability (MTS), % of medium control: 111.835% and 81.6116% and 105.448%
[4]; 3 µM with CPP2
  VSMC viability (MTS), % of medium control: 87.2434% and 103.748%
[4]; 10 µM with CPP2
  VSMC viability (MTS), % of medium control: 94.1761% and 106.452%
[4]; 30 µM with CPP2
  VSMC viability (MTS), % of medium control: 95.6307% and 101.925%
[4]; 100 µM with CPP2
  VSMC viability (MTS), % of medium control: 103.228% and 101.178%
[5]; 3 µM with CPP2
  viability at 48 h, 3 µM: 102%
[5]; 10 µM with CPP2
  viability at 48 h, 10 µM: 104%
[5]; 30 µM with CPP2
  viability at 48 h, 30 µM: 101%
[5]; 100 µM with CPP2
  viability at 48 h, 100 µM: 93.7%
[6]; 10 mg/kg, 10 mg/kg s.c., t = 360 min
  AUC(0-t): 19.8 µM·h
[6]; 50 mg/kg, 50 mg/kg s.c., tlast 1440 min
  AUC(0-t): 120 µM·h
[6]; 10 mg/kg s.c.
  AUC(0-inf): 19.9 µM·h
  Tmax: 0.417 h
  Cmax: 12 ± 1 µM
[6]; 10 mg/kg s.c., healthy rats
  half-life: 0.783 ± 0.0167 h
[6]; 50 mg/kg s.c.
  AUC(0-inf): 122 µM·h
  half-life: 3.17 ± 1.1 h
  Cmax: 71 ± 26 µM
[6]; read-out: mean residence time (MRT) (converted)
  MRT: 1.3 h

From PMC7002685, “Inhibition of vascular calcification by inositol phosphates derivatized with ethylene glycol oligomers” (Nature Communications, 2020)
